From patent US20240182456A1, “2-((4-((S)-2-(4-CHLORO-2-FLUOROPHENYL)-2-METHYLBENZO[D][1,3]DIOXOL-4-YL)PIPERIDIN-1-YL)METHYL)-1-(((S)-OXETAN-2-YL)METHYL)-1H-IMIDAZOLE DERIVATIVES AS ACTIVATORS OF THE GLP1 RECEPTOR FOR THE TREATMENT OF OBESITY” (Novartis AG, priority 2021, published 2024)
pEC50: −log10 of the molar value. Read-outs that look alike come from different tables or passages of the source.

Legend:
human GLP1R (hGLP1R) = human GLP1R (hGLP1R) (Homo sapiens, UniProt P43220); assay: Human GLP1R cAMP agonist assay (GloSensor); format: cell-based; settings: for Emax: read-out: Emax mean; for pEC50: intracellular cAMP, mean n=3 where SEM is given
Description: (§1) Compounds 1 to 31 were tested in the following cellular assays that measure the intracellular cAMP concentration, beta-arrestin recruitment and receptor internalization. The cAMP is generated by the activation of GLP1R. The cAMP data obtained is shown in Table 1 (where S.E.M. is included, mean n=3 independent experiments+/−S.E.M). Beta-arrestin is recruited upon activation of GLP1R and the data obtained are shown in Table 2 (mean n=2 independent experiments, +/−S.D). The extent to which the GLP1R is internalized into the cell and away from the plasma membrane following activation is also shown in Table 2 (mean n=2 independent experiments, +/−S.D). EC50 for each assay is defined as the concentration of the compound that leads to half of the maximum response (after baseline correction). Emax is defined as the maximum response observed for the test compound, normalized to the maximum response observed for the endogenous ligand (GLP1(7-36)) to GLP1R.
Human GLP1R cAMP Agonist Assay
The agonist activity of compounds was determined using the GloSensor™ cAMP Assay (Promega Corp.), which measures changes in the intracellular concentration of cAMP after ligand activation of GPCRs. The assay uses a biosensor encoded by pGloSensor™-22F cAMP plasmid (Promega, cat #E2301) with cAMP binding domains fused to a mutant form of Photinus pyralis luciferase. Binding to cAMP causes conformational changes that promote large increases in light output, which can be measured by a luminescence detector. HEK293-SNAP-hGLP1R-GloSensor cells stably overexpressing the human GLP1 receptor (hGLP1R) and pGloSensor™-22F were seeded in white 384-well poly-D-Lysine coated plates (Greiner Bio One, cat #781945) in CO2-independent media (Gibco cat #18045-088 with 1.0% FBS, 2 mM L-glutamine, penicillin and streptomycin) and incubated overnight at 37° C., 5% CO2 with humidity. The assay was started the following morning by adding an equal volume of CO2-independent media containing 4% v/v dilution of the GloSensor substrate (Promega, cat #E1291) to all wells. The cell plate was incubated at rt for 2 h in the dark. The Biomek 7 (Beckman Coulter) instrument was used for the liquid handling steps. To generate duplicate dose response curves, 3-fold serially diluted compounds were added in to the cell assay plate to a final volume of 60 μL with final concentrations ranging from 30 μM through 0.06 μM in CO2-independent media containing 0.1% BSA, 0.5 mM IBMX and 0.4% DMSO. In the same plate and assay buffer as the tested compounds, were EC100 control wells containing GLP1 (7-36) peptide (Bachem, cat #H-6795) at a final concentration of 2 nM and also EC0 control wells containing no peptide. This plate was incubated at rt in the dark for 12 min after adding the compounds to the cells. Luminescence was then measured with an Envision 2104 Multilabel reader with “TRF Light Unit, 337 nm” (PerkinElmer) using the Ultra-Sensitive protocol setting “384-well US luminescence detector” with the 384-well luminescence aperture, 0.1 seconds per well. cAMP activity was calculated as percent of the GLP1 (7-36) EC100 control wells: [(sample signal−mean EC0 signal)/(mean EC100 of GLP1 (7-36) signal−mean EC0 signal)}*100. Curve fitting for EC50 determinations was performed in the Helios module of the software package DAVID. The 4-parameter logistic model, Hill slope was used: y=Ainf+(A0−Ainf)/(1+(x/AC50)^Hill Slope) where y is the functional response; x is the compound concentration; A0 is the minimum value (at 0 dose); Ainf is the maximum value (at infinite dose); AC50 corresponds to the point of inflection (i.e. the point on the sigmoid shaped curve halfway between A0 and Ainf). The EC50 value was represented by the AC50 value calculated from Helios in μM. Emax is the maximal activity detected within the concentration range, derived from the fitted curve. […]

human GLP1R = human GLP1R (Homo sapiens, UniProt P43220); assay: Human GLP1R DERET internalization assay; format: cell-based; settings: HEK293-SNAP-hGLP1R-GloSensor cells; for pEC50: mean n=2; for Emax: relative to GLP1(7-36)
Description: as §1
The extent to which agonists internalize the human GLP1R was determined based on an optimized version of a RealTime FRET-based ‘DERET’ (Dissociation Enhanced Resonance Energy Transfer) assay. The technology relies on labeling of the SNAP-tagged GPCR with a SNAP-Lumi-Terbium (donor fluorophore, Cisbio, cat #SSNPTBD). The compounds are incubated with the cells over-expressing the GPCR of interest in the presence of an excess of fluorescein (acceptor fluorophore). When the GPCR is on the cell surface, the donor signal is quenched by the acceptor and the donor/acceptor ratio is low. As the GPCR internalizes, the donor signal is no longer quenched, and the acceptor is no longer excited so the donor/acceptor ratio increases.
HEK293-SNAP-hGLP1R-GloSensor cells (stably overexpressing SNAP-tagged hGLP1R) were seeded overnight in white 384-well poly-D-Lysine coated plates (Greiner Bio One, cat #781945) in regular DMEM growth medium (Gibco, cat #11965-092, 10% heat-inactivated FBS, 10 mM HEPES, 1× penicillin/streptomycin, 0.5 mg/mL geneticin (Gibco, cat #10131-035) and 0.25 mg/mL hygromycin B (Invitrogen, cat #10687010). On the assay day, cell medium was removed and 100 nM SNAP-Lumi-Tb reagent was added in Opti-MEM solution. The cells were incubated at 37° C. for 1 h. Cells were washed using a plate washer in assay buffer [1×HBSS (10× Gibco, cat #14065-056), 20 mM Hepes (Gibco, cat #15630-080), 1 mM CaCl2 (Fluka, cat #21114-1L), 1 mM MgCl2 (Ambion, cat #AM9530G) pH7.4], and 20 μL buffer with 0.1% BSA was added to each well. After leaving cells to equilibrate for ˜15 min at 37° C., 10 μL of Fluorescein (sodium salt, Sigma, cat #F6377, diluted in buffer) was added at 25 μM final concentration. To generate triplicate dose response curves, compounds were serially diluted 3-fold in assay buffer, then added to the cell assay plate to a final volume of 40 μL and final top concentrations starting at 30 μM. In the same plate and assay buffer as the tested compounds, a GLP1 (7-36) peptide (Bachem, cat #H-6795) control curve was included at a final top concentration of 1 μM in order to establish EC100. EC0 wells with buffer only were also included. The plate FRET fluorescence was measured immediately using a Perkin Elmer Envision with LANCE/DELFIA D400 single mirror, excitation filter X320, and emission filters M615_203 (donor emission) and M515 (acceptor emission), and then measured every 30 min. […] Plates were kept at 37° C. between reads. Data was expressed as the ratio of donor/acceptor emissions using Microsoft Excel and plotted in GraphPad Prism. In order to determine EC50 and Emax for internalization, data was calculated and expressed as percent of the GLP1 (7-36) EC100 control wells: [(sample signal−mean EC0 signal)/(mean EC100 of GLP1 (7-36) signal−mean EC0 signal)]*100 using Microsoft Excel. Curve fitting for EC50 determinations was performed using GraphPad Prism. The 4-parameter logistic model, Hill slope was used:
Y=Bottom+(Top−Bottom)/(1+10^((Log EC50−X)*Hill Slope)), […]

[1] = HEK293-SNAP-hGLP1R-GloSensor cells, cAMP, normalized to GLP1(7-36) maximum response
[2] = HEK293-SNAP-hGLP1R-GloSensor cells

Sequence of human GLP1R (hGLP1R) (P43220 24-463): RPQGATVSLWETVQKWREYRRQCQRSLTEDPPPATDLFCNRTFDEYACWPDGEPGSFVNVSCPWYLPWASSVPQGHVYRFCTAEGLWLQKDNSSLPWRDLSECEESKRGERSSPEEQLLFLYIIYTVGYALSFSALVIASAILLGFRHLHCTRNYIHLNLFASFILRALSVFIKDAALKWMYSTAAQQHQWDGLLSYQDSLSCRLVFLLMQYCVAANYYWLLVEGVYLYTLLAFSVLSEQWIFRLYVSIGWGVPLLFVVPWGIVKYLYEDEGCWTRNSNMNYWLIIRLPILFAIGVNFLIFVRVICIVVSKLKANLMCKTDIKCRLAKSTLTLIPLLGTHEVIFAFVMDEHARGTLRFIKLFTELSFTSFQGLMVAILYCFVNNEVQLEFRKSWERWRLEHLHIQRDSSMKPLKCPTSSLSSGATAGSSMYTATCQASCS
Sequence of human GLP1R (P43220 24-463): as above

SMILES | Emax (human GLP1R (hGLP1R); [1]) [%] | pEC50 (human GLP1R (hGLP1R); [2]) | pEC50 (human GLP1R) | Emax (human GLP1R) [%] | Emax (human GLP1R (hGLP1R)) [%]
Cc1nc(CN2CCC(c3cccc4c3O[C@@](C)(c3ccc(Cl)cc3F)O4)CC2)n(C[C@@H]2CCO2)c1/C=C(/F)C(=O)O [Compound C-19a, (E)-3-(2-((4-((S)-2-(4-chloro-2-fluorophenyl)-2-methylbenzo[d][1,3]dioxol-4-yl)piperidin-1-yl)methyl)-4-methyl-1-(((S)-oxetan-2-yl)methyl)-1H-imidazol-5-yl)-2-fluoroacrylic acid] | 110 | 10.86 | 7.07 | 27 | 
Cc1nc(CN2CCC(c3cccc4c3O[C@@](C)(c3ccc(Cl)cc3F)O4)CC2)n(C[C@@H]2CCO2)c1/C=C(\F)C(=O)O [Compound C-19b, (Z)-3-(2-((4-((S)-2-(4-chloro-2-fluorophenyl)-2-methylbenzo[d][1,3]dioxol-4-yl)piperidin-1-yl)methyl)-4-methyl-1-(((S)-oxetan-2-yl)methyl)-1H-imidazol-5-yl)-2-fluoroacrylic acid] | 111 | 9.01 | < 4.52 | 27 | 
Cc1nc(CN2CCC(c3cccc4c3O[C@@](C)(c3ccc(Cl)cc3F)O4)CC2)n(C[C@@H]2CCO2)c1-c1nc(=O)o[nH]1 [Compound C-20, 3-(2-((4-((S)-2-(4-chloro-2-fluorophenyl)-2-methylbenzo[d][1,3]dioxol-4-yl)piperidin-1-yl)methyl)-4-methyl-1-(((S)-oxetan-2-yl)methyl)-1H-imidazol-5-yl)-1,2,4-oxadiazol-5(2H)-one] |  | 9.69 | < 4.52 | 6 | 104
Cc1c(-c2nc(=O)o[nH]2)nc(CN2CCC(c3cccc4c3O[C@@](C)(c3ccc(Cl)cc3F)O4)CC2)n1C[C@@H]1CCO1 [Compound C-21, 3-(2-((4-((S)-2-(4-chloro-2-fluorophenyl)-2-methylbenzo[d][1,3]dioxol-4-yl)piperidin-1-yl)methyl)-5-methyl-1-(((S)-oxetan-2-yl)methyl)-1H-imidazol-4-yl)-1,2,4-oxadiazol-5(2H)-one] | 104 | 9.53 | 5.75 | 13 | 
Cc1nc(CN2CCC(c3cccc4c3O[C@@](C)(c3ccc(Cl)cc3F)O4)CC2)n(C[C@@H]2CCO2)c1C#CC(=O)O [Compound C-22, 3-(2-((4-((S)-2-(4-chloro-2-fluorophenyl)-2-methylbenzo[d][1,3]dioxol-4-yl)piperidin-1-yl)methyl)-4-methyl-1-(((S)-oxetan-2-yl)methyl)-1H-imidazol-5-yl)propiolic acid] | 102 | 11.40 | 7.74 | 76 | 
C[C@]1(c2ccc(Cl)cc2F)Oc2cccc(C3CCN(Cc4nc(C(F)(F)F)c(-c5nnn[nH]5)n4C[C@@H]4CCO4)CC3)c2O1 [Compound C-24, 4-((S)-2-(4-chloro-2-fluorophenyl)-2-methylbenzo[d][1,3]dioxol-4-yl)-1-((1-(((S)-oxetan-2-yl)methyl)-5-(1H-tetrazol-5-yl)-4-(trifluoromethyl)-1H-imidazol-2-yl)methyl)piperidine] |  | 9.11 | < 4.52 | -3 | 112
C[C@]1(c2ccc(Cl)cc2F)Oc2cccc(C3CCN(Cc4nc(C(F)(F)F)c(-c5nc(=O)o[nH]5)n4C[C@@H]4CCO4)CC3)c2O1 [Compound C-26, 3-(2-((4-((S)-2-(4-chloro-2-fluorophenyl)-2-methylbenzo[d][1,3]dioxol-4-yl)piperidin-1-yl)methyl)-1-(((S)-oxetan-2-yl)methyl)-4-(trifluoromethyl)-1H-imidazol-5-yl)-1,2,4-oxadiazol-5(2H)-one] |  | 9.04 | < 4.52 | -6 | 99
